Key:
[1] = molecular target: T7 RNA polymerase (Escherichia phage T7, UniProt P00573); experiment: In vitro transcription yield of mRNA with cap analog (co-transcriptional capping); format: biochemical; conditions: for Yield per unit template: in vitro transcription, 1 μg DNA template, 20 μL system, 37° C. 2 hours; for transcription yield higher than that of compound 14: relative to compound 14
Description: (1) Capping synthesis using cap analogs
The plasmid was first linearized with plasmid linearizing enzyme, and then the linearized plasmid was purified.
(2) In vitro transcription and synthesis of mRNA
YK-CAP-001 to 006 and compound 14 in Table 1 were respectively used as cap analogs.
During the experiment, the volume of materials required for the system was first calculated, and then sample addition was conducted. The system was first added with sterile enzyme-free water, followed by the sequential addition of 10× buffer, NTPs, and cap analogs, mixed well, and gently centrifuged. Nuclease inhibitors, inorganic pyrophosphatase, T7 RNA polymerase, and linearized DNA templates were then added thereto. The system was mixed well, gently centrifuged, and incubated at 37° C. After 2 hours of incubation, the system was added with 1 U of DNase I and incubated at 37° C. for another 30 minutes. The mRNA precipitate was then washed with 75% ethanol, and after the ethanol was briefly evaporated to dryness, the mRNA was redissolved in sterile enzyme-free water.
(3) The transcription product was purified, and the in vitro transcription yield of mRNA was recorded.

[2] = molecular target: T1, DCP2 enzyme (Schizosaccharomyces pombe, UniProt O13828); experiment: Decapping enzyme stability test; format: biochemical; conditions: for Decapping rate (%) of DCP2 enzyme: 30 pmol RNA, 50 U mRNA decapping enzyme, 37° C., 45 minutes; for decapping rate lower than that of HN3002: difference to HN3002; for decapping rate lower than that of N-7413: difference to N-7413; for decapping rate lower than that of YK-CAP-001: difference to YK-CAP-001; for decapping rate lower than that of YK-CAP-002: difference to YK-CAP-002; for decapping rate lower than that of compound 14: difference to compound 14; for decapping rate lower than that of m6A: difference to m6A
T1 construct: purchased New England Biolabs
T1 sequence (O13828 1-243 limits assumed): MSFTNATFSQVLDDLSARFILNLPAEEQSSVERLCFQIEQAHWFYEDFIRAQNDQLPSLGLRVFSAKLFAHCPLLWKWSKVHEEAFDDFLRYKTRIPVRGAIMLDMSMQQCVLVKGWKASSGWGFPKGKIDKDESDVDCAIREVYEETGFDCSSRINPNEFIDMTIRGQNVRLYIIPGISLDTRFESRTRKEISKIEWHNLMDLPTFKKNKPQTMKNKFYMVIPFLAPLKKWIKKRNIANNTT
T1 sequence (Q9P805 1-127 partner): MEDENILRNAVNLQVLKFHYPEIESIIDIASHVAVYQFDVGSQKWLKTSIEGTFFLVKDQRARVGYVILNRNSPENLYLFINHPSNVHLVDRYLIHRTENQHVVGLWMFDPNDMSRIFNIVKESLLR
T1 sequence (Q10108 155-180 partner limits assumed): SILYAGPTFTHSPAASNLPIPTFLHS
Description: 30 pmol of RNAs purified by polyacrylamide gel electrophoresis (PAGE) was subjected to an enzymatic reaction with 50 U of mRNA decapping enzyme (New England Biolabs) and 1×MDE buffer at 37° C. for 45 minutes. The enzymatic reactants were subjected to PAGE and stained with SYBR Green II (Lonza), followed by observation of the post-electrophoresis gel image on a Typhoon FLA 7000 (GE Healthcare) instrument. The electrophoresis band intensity ratio of RNA capping to RNA decapping was counted using ImageQuant (GE Healthcare) software, and the decapping rate of the decapping enzyme was calculated (as shown in Table 6).

Sequence of T7 RNA polymerase (P00573 whole entry): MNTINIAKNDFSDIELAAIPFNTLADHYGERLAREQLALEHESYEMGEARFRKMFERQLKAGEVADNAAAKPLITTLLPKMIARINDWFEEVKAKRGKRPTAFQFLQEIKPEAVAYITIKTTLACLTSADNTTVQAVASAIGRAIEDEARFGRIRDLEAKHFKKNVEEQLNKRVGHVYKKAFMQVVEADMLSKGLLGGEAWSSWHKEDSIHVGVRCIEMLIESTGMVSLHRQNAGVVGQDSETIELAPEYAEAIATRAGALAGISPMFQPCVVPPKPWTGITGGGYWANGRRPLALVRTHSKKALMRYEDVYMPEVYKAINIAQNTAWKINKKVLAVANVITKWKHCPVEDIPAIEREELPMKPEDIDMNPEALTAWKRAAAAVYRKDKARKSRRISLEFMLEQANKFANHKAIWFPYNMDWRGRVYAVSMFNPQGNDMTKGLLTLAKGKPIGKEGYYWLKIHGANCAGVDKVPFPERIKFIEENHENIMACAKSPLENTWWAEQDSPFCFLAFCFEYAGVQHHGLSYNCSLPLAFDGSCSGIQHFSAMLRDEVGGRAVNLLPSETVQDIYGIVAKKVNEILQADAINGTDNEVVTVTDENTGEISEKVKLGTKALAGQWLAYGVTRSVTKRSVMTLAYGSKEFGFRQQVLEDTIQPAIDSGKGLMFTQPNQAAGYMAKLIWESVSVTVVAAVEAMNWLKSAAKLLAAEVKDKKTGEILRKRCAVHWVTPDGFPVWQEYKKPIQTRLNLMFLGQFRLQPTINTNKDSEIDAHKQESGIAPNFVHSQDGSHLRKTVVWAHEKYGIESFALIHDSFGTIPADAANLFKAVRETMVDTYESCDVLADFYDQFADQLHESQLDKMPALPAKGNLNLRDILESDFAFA

| SMILES | Yield per unit template [1] | transcription yield higher than that of compound 14 [1] | Decapping rate (%) of DCP2 enzyme [2] | decapping rate lower than that of HN3002 [2] | decapping rate lower than that of N-7413 [2] | decapping rate lower than that of YK-CAP-001 [2] | decapping rate lower than that of YK-CAP-002 [2] | decapping rate lower than that of compound 14 [2] | decapping rate lower than that of m6A [2] | transcription yield higher than that of YK-CAP-001 ([1]; relative to YK-CAP-001) | transcription yield higher than that of YK-CAP-002 ([1]; relative to YK-CAP-002) |
| --- | --- | --- | --- | --- | --- | --- | --- | --- | --- | --- | --- |
| COC1C(OP(=O)([O-])OC[C@H]2O[C@@H](n3cnc4c(=O)[nH]c(N)nc43)C(O)C2O)[C@@H](COP(=O)(O)OP(=O)(O)OP(=O)(O)OC[C@]23O[C@@H]([n+]4cn(C)c5c(=O)[nH]c(N)nc54)C(O[C@H]2CC(=O)N(C)C)C3O)O[C@H]1n1cnc2c(N)ncnc21 (some centres unmarked) [YK-CAP-003] | 151.0 µg | 24.9% | 11.8% | 11.4% | 36.8% | 14.5% | 12.8% | 17.0% | 15.7% |  |  |
| COC1C(OP(=O)([O-])OC[C@H]2O[C@@H](n3cnc4c(=O)[nH]c(N)nc43)C(O)C2O)[C@@H](COP(=O)(O)OP(=O)(O)OP(=O)(O)OC[C@]23O[C@@H]([n+]4cn(C)c5c(=O)[nH]c(N)nc54)C(O[C@H]2CC(F)F)C3O)O[C@H]1n1cnc2c(N)ncnc21 (some centres unmarked) [YK-CAP-004] | 163.2 µg | 35.0% | 10.3% | 12.9% | 38.3% | 16.0% | 14.3% | 18.5% | 17.2% | 82.8% | 58.3% |
| COC1C(OP(=O)([O-])OC[C@H]2O[C@@H](n3cnc4c(=O)[nH]c(N)nc43)C(O)C2O)[C@@H](COP(=O)(O)OP(=O)(O)OP(=O)(O)OC[C@]23O[C@@H]([n+]4cn(C)c5c(=O)[nH]c(N)nc54)C(O[C@H]2CCS(C)(=O)=O)C3O)O[C@H]1n1cnc2c(N)ncnc21 (some centres unmarked) [YK-CAP-005] | 152.6 µg | 26.2% | 12.8% | 10.4% | 35.8% | 13.5% | 11.8% | 16.0% | 14.7% |  |  |
| COC1C(OP(=O)([O-])OC[C@H]2O[C@@H](n3cnc4c(=O)[nH]c(N)nc43)C(O)C2O)[C@@H](COP(=O)(O)OP(=O)(O)OP(=O)(O)OC[C@]23O[C@@H]([n+]4cn(C)c5c(=O)[nH]c(N)nc54)C(O[C@H]2CCS(=O)(=O)N(C)C)C3O)O[C@H]1n1cnc2c(N)ncnc21 (some centres unmarked) [YK-CAP-006] | 153.1 µg | 26.6% | 11.2% | 12.0% | 37.4% | 15.1% | 13.4% | 17.6% | 16.3% |  |  |

From US12551500B2, “C6′-substituted locked nucleic acid-modified cap analog and use thereof” (Hangzhou Tianlong Pharmaceutical Co., Ltd., priority 2024, dated 2026)
